The text below walks through data of USRE47493E1, “Substituted bicyclic dihydropyrimidinones and their use as inhibitors of neutrophil elastase activity” (Boehringer Ingelheim International GmbH, priority 2014, dated 2019).

The target in series [1] is Human neutrophil elastase (Homo sapiens (Human), UniProt P08246). Nature of the series: Human Neutrophil Elastase Assay. It is filed as biochemical. Conditions: human neutrophil elastase, substrate MeOSuc-Ala-Ala-Pro-Val-AMC, pH 7.5; read-out: IC50. The protocol: Human Neutrophil Elastase Assay
Materials: Human neutrophil elastase was purchased from Calbiochem (Cat.No.: 324681) and the elastase substrate MeOSuc-Ala-Ala-Pro-Val-AMC from Bachem (Cat.No.: I-1270). All other materials were of the highest grade commercially available.
The following buffers were used: Compound buffer: 100 mM Tris, 500 mM NaCl, adjusted to pH 7.5; Assay buffer: 100 mM Tris, 500 mM NaCl, adjusted to pH 7.5, containing 0.01% BSA.
Assay conditions: Test compounds were prediluted in DMSO and subsequently in compound buffer (5% DMSO final). 5 μL of these compound dilutions were mixed with 10 μl Neutrophil elastase (9 ng/ml in assay buffer) in a black 384 well OptiPlate (Perkin Elmer, Cat No.: 6007270) and incubated for 15 min at room temperature. Subsequently 10 μL substrate solution in assay buffer were added (250 nM final concentration) and the plates were incubated for 60 min at room temperature. After inactivation of the enzyme, fluorescence intensities were measured at 380 nm excitation and 460 nm emission wavelengths.
Each plate contains wells with a high value control (DMSO+enzyme+substrate) and wells with a low value control (DMSO+inactivated enzyme+substrate). IC50 values were estimated using a sigmoidal concentration response curve with variable slope. Means of low values were taken as 0%, means of high values as 100%.

In series [2] the target is neutrophil elastase in human plasma (Homo sapiens (Human), UniProt P08246). In words: Assay for the Determination of Neutrophil Elastase Inhibitory Activity in Human Plasma. Conditions: neutrophil elastase enriched human plasma (zymosan-stimulated blood). The series is classed as biochemical. The protocol: Assay for the Determination of Neutrophil Elastase Inhibitory Activity in Human Plasma
Citrated blood from human healthy donors is mixed with zymosan suspension and incubated at room temperature. This leads to the stimulation of neutrophils and the release of neutrophil elastase into the plasma. The stimulated blood is centrifuged to generate the neutrophil elastase enriched plasma.
Preparation of Zymosan Working Solution:
• single 45 ml blood sample is taken into a 50 ml tube containing citrate (3.13%, 5 mL) and the tube is gently inverted 4 times. • Immediately after blood sampling, zymosan working solution (5 mL) is added. • After the addition of zymosan working solution, the tubes are capped, mixed gently and incubated at 22° C. for 15 min on a shaker at 20 rpm. • Make 10 ml aliquots after the incubation time. • Centrifuge the 15 ml tubes at 800 g for […] at 4° C. in a Jouan centrifuge. • Harvest the plasma and make 1-5 ml aliquots. • Store the plasma at −80° C.
Various concentrations of the neutrophil elastase inhibitor are incubated with plasma. Subsequently, the enzyme activity is measured using the fluorogenic substrate MeOSuc-Ala-Ala-Pro-Val-AMC (Bachem Cat. No. 1-1270, substrate concentration: 250 μM, pH 7.5, 25 mM TRIS buffer, 250 mM NaCl) in analogous fashion as described for the human neutrophil assay. A dose response curve is generated to calculate the EC50 of the inhibitor. The analysis of the data is performed by the calculation of the percentage of fluorescence in the presence of the test compound compared to the fluorescence of the vehicle control after subtracting the background fluorescence: An inhibitor of the neutrophil elastase enzyme will give values between 100% control (no inhibition) and 0% control (complete inhibition). The human plasma shift of selected compounds can be calculated using the following equation: Human plasma shift=(EC50 in human plasma assay)/(IC50 in human neutrophil elastase assay) The EC50 values of selected compounds in the human plasma assay described above are listed in Table 14.

Series [3] in a line: Assay for Determination of Aqueous Solubility. It is filed as physicochemical. To be noted: McIlvaine buffer pH 6.8, 2.5% DMSO, 24 h. As to the method:
Assay for Determination of Aqueous Solubility
The aqueous solubility of a compound is determined by comparing the amount dissolved in aqueous buffer (containing 2.5% DMSO) to the amount dissolved in an acetonitrile/water (1/1) solution. Starting from a 10 mM DMSO stock solution, aliquots are diluted with acetonitrile/water (1/1) and Mcllvaine buffer pH 6.8, respectively. After 24 h of shaking, the solutions or suspensions are filtered and analyzed by LC-UV. The amount dissolved in buffer is compared to the amount dissolved in the acetonitrile/water (1/1) solution. Solubility is measured from 0.001 to 0.125 mg/ml at a DMSO concentration of 2.5%. If more than 90% of the compound is dissolved in buffer, the value is marked with “>”.

The test system of series [4] is Caco-2 cell monolayers. Nature of the series: Assay for Determination of Drug Transport Across Human CACO-2 Cells. The series is classed as in vitro ADME. Conditions: for Efflux ratio: Caco-2, PEBA/PEAB; for PEAB: Caco-2, apical-to-basal; for PEAB / PEBA: pH 7.2, 37° C.; for PEBA: Caco-2, basal-to-apical. An excerpt: Assay for Determination of Drug Transport Across Human CACO-2 Cells
The assay provides information on the potential of a compound to pass the cell membrane, on the extent of oral absorption as well as on whether the compound is actively transported by uptake and/or efflux transporters. For the measurement of permeability across polarized, confluent human cancer colon carcinoma cells 2 (Caco-2) cell monolayers grown on permeable filter supports are used as the in vitro absorption model. Apparent permeability coefficients (PE) of the compounds across the Caco-2 monolayers are measured (pH 7.2, 37° C.) in apical-to-basal (AB) (absorptive) and basal-to-apical (BA) (secretory) transport direction. AB permeability (PEAB) represents drug absorption from the intestine into the blood and BA permeability (PEBA) drug secretion from the blood back into the intestine via both passive permeability as well as active transport mechanisms mediated by efflux and uptake transporters that are expressed on the Caco-2 cells. The compounds are assigned to permeability/absorption classes by comparison of the AB permeabilities with the AB permeabilities of reference compounds with known in vitro permeability and oral absorption in the human. Identical or similar permeabilities in both transport directions indicate passive permeation, vectorial permeability points to additional active transport mechanisms. […] Active transport is concentration-dependently saturable.
Caco-2 cells (1−2*10^5 cells/cm^2 area) are seeded on filter inserts (Costar transwell polycarbonate or PET filters, […] pore size) and cultured (DMEM) for 10 to 25 days. Compounds are dissolved in appropriate solvent (like DMSO, 1-20 mM stock solutions). Stock solutions are diluted with HTP-4 buffer (128.13 mM NaCl, 5.36 mM KCl, 1 mM MgSO4, 1.8 mM CaCl2, 4.17 mM NaHCO3, 1.19 mM Na2HPO4×7H2O, 0.41 mM NaH2PO4×H2O, 15 mM HEPES, 20 mM glucose, pH 7.2) to prepare the transport solutions (typically […] compound, final DMSO <=0.5%). The transport solution (TL) is applied to the apical or basolateral donor side for measuring A-B or B-A permeability (3 filter replicates), respectively. The receiver side contains HTP-4 buffer supplemented with 2% BSA. Samples are collected at the start and end of experiment from the donor and at various time intervals for up to 2 hours also from the receiver side for concentration measurement by LC-MS/MS or scintillation counting. Sampled receiver volumes are is replaced with fresh receiver solution.
The apparent permeability coefficients (PEAB and PEBA) and efflux ratios (PEBA/PEAB) of selected compounds in the Caco-2 drug transport assay described above are listed in Table 17.
On the technique in general: Passage across Caco-2 layers is used to estimate intestinal permeability.

Series [5] is described as follows: Assay for the Determination of Metabolic Stability with Human Liver Microsomes. The series is classed as in vitro ADME. To be noted: pooled human liver microsomes, 37° C., NADPH. The protocol: Assay for the Determination of Metabolic Stability with Human Liver Microsomes
The metabolic degradation of the test compound is assayed at 37° C. with pooled human liver microsomes. The final incubation volume of […] per time point contains TRIS buffer pH 7.6 (0.1 M), magnesium chloride (5 mM), microsomal protein (1 mg/ml) and the test compound at a final concentration of […]. Following a short preincubation period at 37° C., the reactions are initiated by addition of beta-nicotinamide adenine dinucleotide phosphate, reduced form (NADPH, 1 mM) and terminated by transfering an aliquot into acetonitrile after different time points. Additionally, the NADPH-independent degradation is monitored in incubations without NADPH, terminated at the last time point. The rol remaining test compound after NADPH independent incubation is reflected by the parameter c(control) (metabolic stability). The quenched incubations are pelleted by centrifugation (10′000 g, 5 min) An aliquot of the supernatant is assayed by LC-MS/MS for the amount of parent compound.
The half-life (t1/2 INVITRO) is determined by the slope of the semilogarithmic plot of the concentration-time profile. The intrinsic clearance (CL_[…]) is calculated by considering the amount of protein in the incubation: CL_[…][μl/min/mg protein]=(ln 2/(half-life [min]*protein content [mg/ml]))*1′000.
The half-life (t1/2 INVITRO) values of selected compounds in the metabolic stability assay described above are listed in Table 15.
On the technique in general: Microsomes from liver hold many membrane-bound enzymes, among them those of drug oxidation.

Series [6] in a line: Assay for the Determination of Metabolic Stability with Human Hepatocytes. It is filed as in vitro ADME. Conditions: scaled with well stirred model. As to the method:
Assay for the Determination of Metabolic Stability with Human Hepatocytes
The metabolic degradation of the test compound is assayed in a human hepatocyte suspension. Human hepatocytes (typically cryopreserved) are incubated in an appropriate buffer system (e.g. Dulbecco's modified eagle medium plus 3.5 μg glucagon/500 mL, 2.5 mg insulin/500 mL and 3.75 mg/500 mL hydrocortison) containing 5% species serum. Following a (typically) […] preincubation in an incubator (37° C., 10% CO2), 5 μl of test compound solution (80 μM; from 2 mM stock solution in DMSO diluted 1:25 with medium) are added into 395 μl hepatocyte suspension (cell density in the range 0.25-5*10^6 cells/mL, typically 1*10^6 cells/mL; final concentration of test compound 1 μM, final DMSO concentration […]). The cells are incubated for six hours (incubator, orbital shaker) and samples (25 μl) are taken at 0, 0.5, 1, 2, 4 and 6 hours. Samples are transferred into acetonitrile and pelleted by centrifugation (5 min). The supernatant is transferred to a new 96-deepwell plate, evaporated under nitrogen and resuspended. The decline of parent compound is analyzed by LC-MS/MS.
The intrinsic clearance CL_[…] is calculated as follows: CL_[…]=Dose/AUC=(C0/CD)/(AUD+clast/k)*1′000/60 (C0: initial concentration in the incubation [μM], CD: cell density of vital cells [10^6 cells/mL], AUD: area under the data [μM*h], clast: concentration of last data point [μM], k: slope of the regression line for parent decline [h^−1])
The calculated in vitro hepatic intrinsic clearance can be scaled up to the intrinsic in vivo hepatic clearance and used to predict hepatic in vivo blood clearance (CL) by the use of a is liver model (well stirred model): CL_[…]_INVIVO [ml/min/kg]=(CL_[…] [μL/min/10^6 cells]* hepatocellularity[10^6 cells/g liver]*liver factor[g/kg bodyweight])/1′000 CL[ml/min/kg]=CL_[…]_INVIVO [ml/min/kg]*hepatic blood flow [ml/min/kg]/(CL_[…]_INVIVO [ml/min/kg]+hepatic blood flow [ml/min/kg]) Qh[%]=CL[ml/min/kg]/hepatic blood flow[ml/min/kg]) (Hepatocellularity, human: 120*10^6 cells/g liver; lver factor, human: 25.7 g/kg bodyweight; blood flow, human: 21 ml/(min*kg))
The predicted human hepatic in vivo blood clearance (CL) of selected compounds in the metabolic stability assay described above are listed in Table 16.

Sequence of neutrophil elastase in human plasma (P08246 30-267): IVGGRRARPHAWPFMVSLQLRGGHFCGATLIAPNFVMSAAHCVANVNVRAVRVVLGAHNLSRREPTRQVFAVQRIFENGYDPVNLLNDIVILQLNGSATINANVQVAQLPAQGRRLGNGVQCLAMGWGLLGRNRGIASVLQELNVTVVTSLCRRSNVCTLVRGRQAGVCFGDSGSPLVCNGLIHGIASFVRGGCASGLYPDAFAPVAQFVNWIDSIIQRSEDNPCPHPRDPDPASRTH
Sequence of Human neutrophil elastase (P08246 30-267): as above

As usually defined, the IC50 is the midpoint of a concentration-inhibition curve. As usually defined, the EC50 is the concentration at which the effect is half-maximal. A word on the Aqueous solubility: it is how much of the substance goes into solution per volume. Lower therefore signals a poorly soluble substance. In the case of `CCNC(=O)N1C(=O)N(c2cccc(C(F)(F)F)c2)C2=C(C(=O)CCC2)C1c1ccc(C#N)cc1S(C)(=O)=O` (stereo not shown) [Example 47.1], the IC50 in series [1] is below 1 nM. The same compound registered an EC50 in series [2] of 1 nM. Also, in series [3], the Aqueous solubility was found to be 73 µg/mL. Also, in series [4], the Efflux ratio stood at 5.4, the PEAB stood at 15 ×10⁻⁶ cm/s and the PEBA stood at 81 ×10⁻⁶ cm/s.
Consider `CS(=O)(=O)c1cc(C#N)ccc1C1C2=C(CCCC2=O)N(c2cccc(C(F)(F)F)c2)C(=O)N1CCCO` (stereo not shown) [Example 58.2], for which the IC50 in series [1] was 1.2 nM. Besides, in series [5], the “t1/2 INVITRO” value was above 2.17 h. In addition, a half-maximal effect in series [2] (EC50) was put at 3 nM. Besides, the Aqueous solubility in series [3] was found to be 56 µg/mL. In addition, the “CL (predicted human hepatic in vivo blood clearance)” value in series [6] is 3 mL/min/kg.
Turning to `CS(=O)(=O)c1cc(C#N)ccc1[C@@H]1C2=C(CCCC2=O)N(c2cccc(C(F)(F)F)c2)C(=O)N1C(=O)NCC(F)F` [Example 75.7], the “t1/2 INVITRO” value in series [5] was above 2.17 h. In addition, the Aqueous solubility in series [3] turned out to be 905 µg/mL. In addition, the “CL (predicted human hepatic in vivo blood clearance)” value in series [6] is 0 mL/min/kg. Also, in series [4], the Efflux ratio is recorded as 10.8, the PEAB was 8.4 ×10⁻⁶ cm/s and the PEBA was 90.6 ×10⁻⁶ cm/s.
With `CS(=O)(=O)c1cc(C#N)ccc1[C@@H]1C2=C(CCCC2=O)N(c2cccc(C(F)(F)F)c2)C(=O)N1C(=O)NC1CCOCC1` [Example 75.16], in series [1], the IC50 was below 1 nM. In series [5], the “t1/2 INVITRO” value is above 2.17 h. For the same compound, the EC50 in series [2] was found to be 1 nM. In series [3], this compound had an Aqueous solubility of 66 µg/mL. For the same compound, in series [6], the “CL (predicted human hepatic in vivo blood clearance)” value was 0 mL/min/kg.
